Measurements reported in US20240181056A1, “CHIMERIC ANTIGEN RECEPTOR (CAR)-T CELLS” (Imperial College Innovations Limited, priority 2021, published 2024).

Experiments:
[1] = test system: T cells transduced with CART4 (tEGFR high cells); assay: In vitro suicide assay (iC9 safety switch, CID-induced apoptosis); format: cell-based, human
Protocol: CART4 with or without iC9 cells were generated with retroviral transduction with CART4 or CART4 w/o iC9 construct. CAR-T cells were kept expanded for five to seven days after transduction. A […] (CID), the B/B homodimerizer AP20187 (Clontech Laboratories), was added at a various concentration to T cell culture. The induction of apoptosis induced by CID was evaluated 24 hr later using Annexin-v/7-AAD (BD Biosciences) staining and flow cytometry analysis. Survival cells were quantified by counting beads (BD Biosciences). Survival index was calculated as follows: number of living tEGFR^+ cells/number of living tEGFR^+ cells in untreated control samples.
In order to evaluate the efficiency of iC9 safety switch in vitro, a CART4 variation without the iC9 gene (CART4 w/o iC9) was cloned as a control. T cells transduced with CART4 or CART4 without iC9 construct were exposed to increasing concentrations of the CID AP20187 (0.1 nM to 100 nM) for 24 hours. Cell death was accessed by flow cytometry analysis with 7AAD and Annexin-V. The tEGFR-positive percentage in the survived population dropped along with the increasing concentration of the CID. […] Consistent with the observations from other studies, the cells that escape killing were those expressing low levels of the transgene with a 50% reduction in mean fluorescence intensity (MFI) of tEGFR after CID (FIG. 1E). […]

[2] = target: CD4 antigen (T-cell surface glycoprotein CD4 [Homo sapiens]) (human) (UniProt P01730); assay: cell-based or functional assay
[3] = target: TCR Vbeta 7.1 chain (H. sapiens rearranged TCR Vbeta 7.1) (human); assay: cell-based or functional assay
Chain of TCR Vbeta 7.1 chain (H. sapiens rearranged TCR Vbeta 7.1) (human) (A0A577 whole entry, form in doubt): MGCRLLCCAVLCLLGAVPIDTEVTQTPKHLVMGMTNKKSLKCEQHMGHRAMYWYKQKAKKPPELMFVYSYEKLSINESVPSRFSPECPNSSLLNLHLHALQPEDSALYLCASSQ

CD4-positive cells remaining after transduction with control CAR (flow cytometry) [2] | TCR Vβ7.1-positive cells remaining after transduction with control CAR (flow cytometry) [3] | Molecule | reduction in mean fluorescence intensity (MFI) of tEGFR in cells that escape killing ([1]; after CID) | tEGFR high cells eliminated ([1]; single 100 nM dose of CID, 24 hours, flow cytometry 7AAD/Annexin-V)
– | – | CC[C@H](C(=O)N1CCCC[C@H]1C(=O)O[C@H](CCc1ccc(OC)c(OC)c1)c1cccc(OCC(=O)NCC(CNC(=O)COc2cccc([C@@H](CCc3ccc(OC)c(OC)c3)OC(=O)[C@@H]3CCCCN3C(=O)[C@@H](CC)c3cc(OC)c(OC)c(OC)c3)c2)CN(C)C)c1)c1cc(OC)c(OC)c(OC)c1 [AP20187] | 50% | 69.1%
45% | 1.2% | CART20 chimeric antigen receptor (anti-CD20 CAR with scFv of monoclonal antibody Leu16) | – | –
